In patent publication US11945798B2, “Substituted aminopyridine compounds as EGFR inhibitors” (YUHAN CORPORATION, priority 2021, dated 2024):
Where two headings read alike, the source gives them in different places.

Tests used:
[1] = molecular target: EGFR del19/C797S (Homo sapiens, UniProt P00533, C797S/DEL746-750); experiment: Biochemical EGFR kinase assay (Lance Ultra TR-FRET), del19/C797S
Method in brief: (§1)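 In this biochemical assay, phosphorylation after a one-hour room-temperature reaction was detected with europium-labelled anti-phosphopeptide antibody at 2 nM final concentration.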

[2] = molecular target: EGFR L858R/C797S (Homo sapiens, UniProt P00533, C797S/L858R); experiment: Biochemical EGFR kinase assay (Lance Ultra TR-FRET), L858R/C797S
Method in brief: as §1

[3] = molecular target: EGFR wildtype (WT) (Homo sapiens, UniProt P00533); experiment: Biochemical EGFR kinase assay (Lance Ultra TR-FRET), wildtype
Method in brief: as §1

[4] = molecular target: EGFR del19/T790M/C797S (Homo sapiens, UniProt P00533, C797S/DEL746-750/T790M); experiment: Biochemical EGFR kinase assay (Lance Ultra TR-FRET), del19/T790M/C797S
Method in brief: as §1

[5] = molecular target: EGFR L858R/T790M/C797S (Homo sapiens, UniProt P00533, C797S/L858R/T790M); experiment: Biochemical EGFR kinase assay (Lance Ultra TR-FRET), L858R/T790M/C797S
Method in brief: as §1

[6] = Km ATP, read-out: IC50 del19/C797S (nM) Km ATP
[7] = Km ATP, read-out: IC50 L858R/C797S (nM) Km ATP
[8] = Km ATP, read-out: IC50 WT (nM) Km ATP
[9] = Km ATP, read-out: IC50 del19/T790M/C797S (nM) Km ATP
[10] = Km ATP, read-out: IC50 L858R/T790M/C797S (nM) Km ATP
[11] = IC50 del19/C797S (nM) 100 μM ATP, 100 μM ATP
[12] = IC50 L858R/C797S (nM) 100 μM ATP, 100 μM ATP
[13] = IC50 WT (nM) 100 μM ATP, 100 μM ATP
[14] = IC50 del19/T790M/C797S (nM) 100 μM ATP, 100 μM ATP
[15] = IC50 L858R/T790M/C797S (nM) 100 μM ATP, 100 μM ATP

Sequence of EGFR del19/C797S (P00533 with tags, fused parts or gaps DEL746-750/C797S): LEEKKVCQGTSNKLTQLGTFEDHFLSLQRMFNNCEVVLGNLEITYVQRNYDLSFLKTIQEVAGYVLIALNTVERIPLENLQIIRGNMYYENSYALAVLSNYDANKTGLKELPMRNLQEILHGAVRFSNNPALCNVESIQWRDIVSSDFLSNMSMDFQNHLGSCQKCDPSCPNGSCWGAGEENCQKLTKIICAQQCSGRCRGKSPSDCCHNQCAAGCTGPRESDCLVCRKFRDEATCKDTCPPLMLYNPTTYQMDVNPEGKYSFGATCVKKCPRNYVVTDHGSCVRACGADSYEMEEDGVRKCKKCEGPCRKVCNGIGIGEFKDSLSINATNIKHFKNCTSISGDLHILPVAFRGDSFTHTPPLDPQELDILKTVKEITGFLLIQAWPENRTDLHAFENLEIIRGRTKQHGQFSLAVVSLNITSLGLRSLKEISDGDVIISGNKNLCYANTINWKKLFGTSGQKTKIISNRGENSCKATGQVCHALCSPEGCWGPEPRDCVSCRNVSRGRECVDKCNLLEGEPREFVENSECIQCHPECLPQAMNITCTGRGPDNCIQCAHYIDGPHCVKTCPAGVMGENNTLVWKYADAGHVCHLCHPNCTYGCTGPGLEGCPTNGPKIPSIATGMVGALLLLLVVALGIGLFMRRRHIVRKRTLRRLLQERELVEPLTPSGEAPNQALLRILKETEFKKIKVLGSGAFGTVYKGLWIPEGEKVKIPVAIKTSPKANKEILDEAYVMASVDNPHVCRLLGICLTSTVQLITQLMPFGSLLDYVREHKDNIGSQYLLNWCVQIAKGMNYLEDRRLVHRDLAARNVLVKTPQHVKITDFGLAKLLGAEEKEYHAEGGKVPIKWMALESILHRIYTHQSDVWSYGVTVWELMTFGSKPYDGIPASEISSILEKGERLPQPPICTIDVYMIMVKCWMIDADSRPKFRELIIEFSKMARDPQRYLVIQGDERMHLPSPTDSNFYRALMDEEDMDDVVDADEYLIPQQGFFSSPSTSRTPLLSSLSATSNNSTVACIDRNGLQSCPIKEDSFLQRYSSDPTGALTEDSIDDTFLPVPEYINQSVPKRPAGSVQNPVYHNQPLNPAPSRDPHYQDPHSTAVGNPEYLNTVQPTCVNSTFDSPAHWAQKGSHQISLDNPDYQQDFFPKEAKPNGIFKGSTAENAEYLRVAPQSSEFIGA
Sequence of EGFR L858R/C797S (P00533 25-1210 C797S/L858R): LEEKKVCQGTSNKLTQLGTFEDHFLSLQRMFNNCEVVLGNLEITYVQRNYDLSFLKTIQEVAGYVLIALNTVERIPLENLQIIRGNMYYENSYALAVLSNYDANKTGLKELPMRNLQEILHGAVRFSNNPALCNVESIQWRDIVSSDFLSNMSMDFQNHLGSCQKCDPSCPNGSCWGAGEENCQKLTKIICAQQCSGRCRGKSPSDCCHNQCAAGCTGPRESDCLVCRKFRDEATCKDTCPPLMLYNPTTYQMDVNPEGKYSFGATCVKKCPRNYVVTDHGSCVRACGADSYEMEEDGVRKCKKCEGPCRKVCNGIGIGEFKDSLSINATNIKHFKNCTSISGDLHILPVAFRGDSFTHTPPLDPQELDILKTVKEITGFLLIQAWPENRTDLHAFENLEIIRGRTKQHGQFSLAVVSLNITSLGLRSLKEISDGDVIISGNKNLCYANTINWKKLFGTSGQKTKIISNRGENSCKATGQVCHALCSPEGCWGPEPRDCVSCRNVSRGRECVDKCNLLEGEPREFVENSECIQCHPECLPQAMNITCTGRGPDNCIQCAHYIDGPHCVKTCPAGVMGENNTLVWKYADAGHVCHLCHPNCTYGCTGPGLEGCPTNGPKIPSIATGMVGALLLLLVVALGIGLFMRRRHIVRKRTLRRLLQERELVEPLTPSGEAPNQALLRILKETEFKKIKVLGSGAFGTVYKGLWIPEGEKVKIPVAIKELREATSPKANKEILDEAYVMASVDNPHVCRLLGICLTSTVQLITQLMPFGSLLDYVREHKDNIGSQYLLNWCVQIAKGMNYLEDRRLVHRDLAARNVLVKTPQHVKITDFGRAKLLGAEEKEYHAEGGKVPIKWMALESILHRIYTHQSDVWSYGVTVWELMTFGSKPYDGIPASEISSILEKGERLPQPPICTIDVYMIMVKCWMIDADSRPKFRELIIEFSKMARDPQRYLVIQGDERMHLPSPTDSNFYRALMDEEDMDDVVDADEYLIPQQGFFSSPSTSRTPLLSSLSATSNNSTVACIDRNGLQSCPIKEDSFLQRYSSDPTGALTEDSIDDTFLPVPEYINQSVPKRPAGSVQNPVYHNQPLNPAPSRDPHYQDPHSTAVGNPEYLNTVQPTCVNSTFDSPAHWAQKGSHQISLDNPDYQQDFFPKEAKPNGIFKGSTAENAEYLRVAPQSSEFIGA
Sequence of EGFR wildtype (WT) (P00533 25-1210): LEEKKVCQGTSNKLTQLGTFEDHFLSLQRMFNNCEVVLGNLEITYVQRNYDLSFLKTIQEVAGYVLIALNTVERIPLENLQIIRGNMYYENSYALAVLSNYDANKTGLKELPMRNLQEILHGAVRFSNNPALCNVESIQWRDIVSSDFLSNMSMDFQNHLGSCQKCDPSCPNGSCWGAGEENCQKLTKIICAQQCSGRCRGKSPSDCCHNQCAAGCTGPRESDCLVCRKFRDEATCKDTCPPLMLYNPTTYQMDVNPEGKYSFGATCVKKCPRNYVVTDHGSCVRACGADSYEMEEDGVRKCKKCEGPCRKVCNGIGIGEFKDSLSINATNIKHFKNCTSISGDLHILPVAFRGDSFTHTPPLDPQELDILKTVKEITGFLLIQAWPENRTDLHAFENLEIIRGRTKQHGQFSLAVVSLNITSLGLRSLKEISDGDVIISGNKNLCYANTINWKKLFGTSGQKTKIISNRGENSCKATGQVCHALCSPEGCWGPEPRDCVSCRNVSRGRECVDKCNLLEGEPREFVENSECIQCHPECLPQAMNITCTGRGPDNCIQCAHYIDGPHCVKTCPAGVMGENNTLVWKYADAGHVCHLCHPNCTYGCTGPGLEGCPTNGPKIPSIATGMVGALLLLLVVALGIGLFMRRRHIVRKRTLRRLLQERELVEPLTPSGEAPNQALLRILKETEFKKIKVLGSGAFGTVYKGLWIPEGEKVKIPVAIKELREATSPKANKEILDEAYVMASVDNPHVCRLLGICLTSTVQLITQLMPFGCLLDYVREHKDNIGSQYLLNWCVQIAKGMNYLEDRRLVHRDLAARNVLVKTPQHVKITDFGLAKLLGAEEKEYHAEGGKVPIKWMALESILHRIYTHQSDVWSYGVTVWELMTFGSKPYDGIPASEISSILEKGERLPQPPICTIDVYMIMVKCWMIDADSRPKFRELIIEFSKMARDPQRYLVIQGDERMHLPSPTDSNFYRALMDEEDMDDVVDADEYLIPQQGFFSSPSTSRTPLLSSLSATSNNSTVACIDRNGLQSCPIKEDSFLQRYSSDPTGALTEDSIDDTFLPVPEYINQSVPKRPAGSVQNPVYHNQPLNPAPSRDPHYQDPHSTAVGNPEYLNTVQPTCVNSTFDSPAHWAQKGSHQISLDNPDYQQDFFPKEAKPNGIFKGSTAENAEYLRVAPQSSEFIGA
Sequence of EGFR del19/T790M/C797S (P00533 with tags, fused parts or gaps DEL746-750/T790M/C797S): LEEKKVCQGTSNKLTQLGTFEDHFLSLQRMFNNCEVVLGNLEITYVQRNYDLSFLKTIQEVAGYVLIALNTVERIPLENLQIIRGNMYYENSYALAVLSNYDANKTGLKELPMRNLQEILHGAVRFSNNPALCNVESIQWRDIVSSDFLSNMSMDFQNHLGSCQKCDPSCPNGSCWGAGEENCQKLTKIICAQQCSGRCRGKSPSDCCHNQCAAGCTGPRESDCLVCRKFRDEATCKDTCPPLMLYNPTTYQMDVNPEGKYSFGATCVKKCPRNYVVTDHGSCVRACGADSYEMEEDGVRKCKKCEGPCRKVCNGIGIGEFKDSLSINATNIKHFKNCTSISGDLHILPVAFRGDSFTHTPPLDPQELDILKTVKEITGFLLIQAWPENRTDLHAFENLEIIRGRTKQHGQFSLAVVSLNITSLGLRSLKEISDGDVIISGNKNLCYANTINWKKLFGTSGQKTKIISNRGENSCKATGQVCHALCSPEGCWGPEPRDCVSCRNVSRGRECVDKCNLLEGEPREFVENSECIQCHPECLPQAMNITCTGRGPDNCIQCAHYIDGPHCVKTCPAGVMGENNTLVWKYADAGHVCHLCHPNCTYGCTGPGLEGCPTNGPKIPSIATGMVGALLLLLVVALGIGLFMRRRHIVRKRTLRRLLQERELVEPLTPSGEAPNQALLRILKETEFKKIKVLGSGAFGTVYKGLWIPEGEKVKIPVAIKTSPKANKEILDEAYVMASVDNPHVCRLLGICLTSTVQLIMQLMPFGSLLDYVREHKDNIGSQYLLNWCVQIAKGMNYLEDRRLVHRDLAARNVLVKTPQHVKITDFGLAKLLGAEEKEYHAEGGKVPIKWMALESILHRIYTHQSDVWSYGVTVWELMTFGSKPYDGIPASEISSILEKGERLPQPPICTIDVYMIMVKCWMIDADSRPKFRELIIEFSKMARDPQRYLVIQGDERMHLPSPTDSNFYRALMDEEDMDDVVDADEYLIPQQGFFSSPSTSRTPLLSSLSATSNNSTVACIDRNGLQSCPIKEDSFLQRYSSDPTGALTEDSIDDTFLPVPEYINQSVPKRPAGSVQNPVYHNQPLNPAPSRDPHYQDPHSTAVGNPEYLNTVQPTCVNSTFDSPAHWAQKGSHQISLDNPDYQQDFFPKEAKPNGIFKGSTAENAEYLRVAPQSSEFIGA

Row | SMILES | IC50 [1, 6] | IC50 [2, 7] | IC50 [3, 8] | IC50 [4, 9] | IC50 [5, 10] | IC50 [1, 11] | IC50 [2, 12] | IC50 [3, 13] | IC50 [4, 14] | IC50 [5, 15]
1 | C[C@@H](CCO)Nc1cc(Nc2ccnc(-c3cnn(S(=O)(=O)C4CC4)c3)n2)ncc1C(=O)C1CC1 [Example 8, (S)-Cyclopropyl(6-((2-(1-(cyclopropylsulfonyl)-1H-pyrazol-4-yl)pyrimidin-4-yl)amino)-4-((4-hydroxybutan-2-yl)amino)pyridin-3-yl)methanone] | 61.6 nM | 292 nM | 471 nM | 0.4 nM | 1.4 nM | – | – | – | – | –
2 | CC(C)Nc1cc(Nc2ccnc(-c3cnn(S(=O)(=O)C4CC4)c3)n2)ncc1C(=O)C1CC1 [Example 1, Cyclopropyl(6-((2-(1-(cyclopropylsulfonyl)-1H-pyrazol-4-yl)pyrimidin-4-yl)amino)-4-(isopropylamino)pyridin-3-yl)methanone] | 4.5 nM | 84.3 nM | 566 nM | 3.8 nM | 1.1 nM | – | – | – | – | –
3 | O=C(c1cnc(Nc2ccnc(-c3cnn(S(=O)(=O)C4CC4)c3)n2)cc1N[C@H]1CC[C@@H](O)CC1)C1CC1 [Example 23, Cyclopropyl(6-((2-(1-(cyclopropylsulfonyl)-1H-pyrazol-4-yl)pyrimidin-4-yl)amino)-4-(((1s,4s)-4-hydroxycyclohexyl)amino)pyridin-3-yl)methanone] | – | – | – | – | – | 2.4 nM | 6.4 nM | 3410 nM | 0.7 nM | 0.5 nM
4 | O=C(c1cnc(Nc2ccnc(-c3cnn(S(=O)(=O)C4CC4)c3)n2)cc1N[C@@H]1CC[C@@H](O)C1)C1CC1 [Example 26, Cyclopropyl(6-((2-(1-(cyclopropylsulfonyl)-1H-pyrazol-4-yl)pyrimidin-4-yl)amino)-4-(((1R,3R)-3-hydroxycyclopentyl)amino)pyridin-3-yl)methanone] | – | – | – | – | – | 55.3 nM | 118 nM | > 10000 nM | 2.9 nM | 3.3 nM
5 | O=C(c1cnc(Nc2ccnc(-c3cnn(S(=O)(=O)C4CC4)c3)n2)cc1N[C@H]1CCC[C@H](O)C1)C1CC1 [Example 22, Cyclopropyl(6-((2-(1-(cyclopropylsulfonyl)-1H-pyrazol-4-yl)pyrimidin-4-yl)amino)-4-(((1S,3S)-3-hydroxycyclohexyl)amino)pyridin-3-yl)methanone] | – | – | – | – | – | 14 nM | 33.2 nM | > 10000 nM | 0.9 nM | 1.1 nM
6 | O=C(c1cnc(Nc2ccnc(-c3cnn(S(=O)(=O)C4CC4)c3)n2)cc1NCCCO)C1CC1 [Example 9, Cyclopropyl(6-((2-(1-(cyclopropylsulfonyl)-1H-pyrazol-4-yl)pyrimidin-4-yl)amino)-4-((3-hydroxypropyl)amino)pyridin-3-yl)methanone] | 70.7 nM | 479 nM | 528 nM | 0.7 nM | 2.5 nM | – | – | – | – | –
7 | O=C(c1cnc(Nc2ccnc(-c3cnn(S(=O)(=O)C4CC4)c3)n2)cc1NCCC1(O)CC1)C1CC1 [Example 29, Cyclopropyl(6-((2-(1-(cyclopropylsulfonyl)-1H-pyrazol-4-yl)pyrimidin-4-yl)amino)-4-((2-(1-hydroxycyclopropyl)ethyl)amino)pyridin-3-yl)methanone] | – | – | – | – | – | 3.5 nM | 120 nM | > 10000 nM | 1.8 nM | 10 nM

Second part, the molecule after the results:

Row | IC50 [1, 6] | IC50 [2, 7] | IC50 [3, 8] | IC50 [4, 9] | IC50 [5, 10] | IC50 [1, 11] | IC50 [2, 12] | IC50 [3, 13] | IC50 [4, 14] | IC50 [5, 15] | SMILES
8 | 94.6 nM | – | 393 nM | 6.3 nM | – | 182 nM | 430 nM | > 10000 nM | 4.2 nM | 5.7 nM | CC(C)Nc1cc(Nc2ccnc(-c3cnn(S(=O)(=O)C4CC4)c3)n2)ncc1C(=O)NCCF [Example 74, 6-((2-(1-(Cyclopropylsulfonyl)-1H-pyrazol-4-yl)pyrimidin-4-yl)amino)-N-(2-fluoroethyl)-4-(isopropylamino)nicotinamide]
9 | – | – | – | – | – | 25.3 nM | 442 nM | > 10000 nM | 2.2 nM | 4.3 nM | O=C(c1cnc(Nc2ccnc(-c3cnn(S(=O)(=O)C4CC4)c3)n2)cc1NC1CCC(F)(CO)CC1)C1CC1 (stereo not shown) [Example 87, Cyclopropyl(6-((2-(1-(cyclopropylsulfonyl)-1H-pyrazol-4-yl)pyrimidin-4-yl)amino)-4-((4-fluoro-4-(hydroxymethyl)cyclohexyl)amino)pyridin-3-yl)methanone]
10 | 0.8 nM | 9.2 nM | 7.5 nM | 0.1 nM | 0.1 nM | – | – | – | – | – | CC(C)NC[C@H]1CC[C@H](CNc2cc(Nc3ccnc(-c4cnn(S(=O)(=O)C5CC5)c4)n3)ncc2C(=O)C2CC2)CC1 [Example 69, Cyclopropyl(6-((2-(1-(cyclopropylsulfonyl)-1H-pyrazol-4-yl)pyrimidin-4-yl)amino)-4-((((1r,4r)-4-((isopropylamino)methyl)cyclohexyl)methyl)amino)pyridin-3-yl)methanone]
11 | 15.7 nM | 26.2 nM | 553 nM | 0.8 nM | 0.5 nM | 4.4 nM | 110 nM | > 10000 nM | 1 nM | 2.4 nM | C[C@]1(O)CC[C@@H](Nc2cc(Nc3ccnc(-c4cnn(S(=O)(=O)C5CC5)c4)n3)ncc2C(=O)C(F)F)CC1 [Example 48, 1-(6-((2-(1-(Cyclopropylsulfonyl)-1H-pyrazol-4-yl)pyrimidin-4-yl)amino)-4-(((1s,4s)-4-hydroxy-4-methylcyclohexyl)amino)pyridin-3-yl)-2,2-difluoroethan-1-one]
12 | 5.6 nM | 9 nM | 57.4 nM | 0.2 nM | 0.1 nM | 19.3 nM | 145 nM | > 10000 nM | 0.9 nM | 1.6 nM | O=C(NCCF)c1cnc(Nc2ccnc(-c3cnn(S(=O)(=O)C4CC4)c3)n2)cc1N[C@H]1CC[C@@H](NCCF)CC1 [Example 77, 6-((2-(1-(Cyclopropylsulfonyl)-1H-pyrazol-4-yl)pyrimidin-4-yl)amino)-N-(2-fluoroethyl)-4-(((1s,4s)-4-((2-fluoroethyl)amino)cyclohexyl)amino)nicotinamide]
13 | 3.1 nM | 5.1 nM | 64.5 nM | 0.4 nM | 0.2 nM | 16.3 nM | 189 nM | > 10000 nM | 0.6 nM | – | C[C@]1(O)CC[C@@H](Nc2cc(Nc3ccnc(-c4cnn(S(=O)(=O)C5CC5)c4)n3)ncc2C(=O)CC2CCOCC2)CC1 [Example 40, 1-(6-((2-(1-(Cyclopropylsulfonyl)-1H-pyrazol-4-yl)pyrimidin-4-yl)amino)-4-(((1s,4s)-4-hydroxy-4-methylcyclohexyl)amino)pyridin-3-yl)-2-(tetrahydro-2H-pyran-4-yl)ethan-1-one]
